Measurements reported in ChEMBL document CHEMBL2396534, “Long-chain triazolyl acids as inhibitors of osteoclastogenesis” (2013).
Active and inactive are the calls of the source. No cut-off for these calls is given here.

Legend:
Bone marrow cell [1] = experiment: Inhibition of osteoclastogenesis in CD1 mouse bone marrow cells at 5 ug/ml added on day 2 and day 4 measured on day 7 by TRAP assay relative to GW9508; format: functional, cell-based
Bone marrow cell [2] = experiment: Inhibition of osteoclastogenesis in CD1 mouse bone marrow cells at 0.1 to 10 ug/ml added on day 2 and day 4 measured on day 7 by TRAP assay; format: functional, cell-based
Bone marrow cell [3] = experiment: Inhibition of osteoclastogenesis in CD1 mouse bone marrow cells at 37 uM added on day 2 and day 4 measured on day 7 by TRAP assay relative to control; format: functional
Bone marrow cell [4] = experiment: Inhibition of osteoclastogenesis in CD1 mouse bone marrow cells at 72 uM added on day 2 and day 4 measured on day 7 by TRAP assay relative to control; format: functional
Bone marrow cell [5] = experiment: Inhibition of osteoclastogenesis in CD1 mouse bone marrow cells at 0.01 ug/ml added on day 2 and day 4 measured on day 7 by TRAP assay relative to control; format: functional

SMILES | inhibition (Bone marrow cell [1]) | inhibition (Bone marrow cell [2]) | inhibition at 37 µM (Bone marrow cell [3]) [%] | inhibition at 72 µM (Bone marrow cell [4]) [%] | inhibition at 0.01 µg/mL (Bone marrow cell [5]) [%]
CCn1cc(CCCCCCCCCCC(=O)O)nn1 | Active | Dose-dependent effect | 16.9 | – | –
CCCCCCCCCCOCCCCC(=O)O | – | Dose-dependent effect | 65.4 | – | –
CCCCCCCCCCCCCCCC(=O)O [PALMITIC ACID] | Active | Active | 73.8 | – | –
CCCCCCCn1cc(CCCCCC(=O)O)nn1 | Active | Dose-dependent effect | 21.5 | – | –
CCCCCn1cc(CCCCCCCC(=O)O)nn1 | – | – | 33.8 | – | –
CCCCCCCCCn1cc(CCCC(=O)O)nn1 | – | Active | 22.2 | – | –
CCCCCCCCCOCCCCCC(=O)O | – | inactive | 100 | – | –
O=C(O)CCc1ccc(NCc2cccc(Oc3ccccc3)c2)cc1 [GW9508] | – | Dose-dependent effect | – | 28.2 | –
CCCCCCCCCCC#CCCCCCC(=O)O [OSTEOPROTEGERIN] | – | – | – | – | 32.6
CCCCCCOCCCCCCCCC(=O)O | – | inactive | 100 | – | –
COCCOCCOCCCCCCCC(=O)O | – | – | 100 | – | –
CCCCCOCCCCCCCCCC(=O)O | – | inactive | 100 | – | –
CCCCCCCCCCCn1cc(CC(=O)O)nn1 | – | – | 38.8 | – | –
CCCCCCCCCCCCCOCC(=O)O | – | – | 100 | – | –
CCCOCCCCCCCCCCCC(=O)O | – | Dose-dependent effect | 73.2 | – | –
CCCCCCCCCCCCOCCC(=O)O | – | Dose-dependent effect | 80.8 | – | –
CCCCCCCCCCn1cc(CCC(=O)O)nn1 | – | Active | 26.7 | – | –
